In ChEMBL document CHEMBL5291721, “A preclinical secondary pharmacology resource illuminates target-adverse drug reaction associations of marketed drugs” (Nat Commun, 2023):

Assays:
[1] = molecular target: T1, Androgen receptor (Homo sapiens, UniProt P10275)
T1 sequence (P10275 whole entry): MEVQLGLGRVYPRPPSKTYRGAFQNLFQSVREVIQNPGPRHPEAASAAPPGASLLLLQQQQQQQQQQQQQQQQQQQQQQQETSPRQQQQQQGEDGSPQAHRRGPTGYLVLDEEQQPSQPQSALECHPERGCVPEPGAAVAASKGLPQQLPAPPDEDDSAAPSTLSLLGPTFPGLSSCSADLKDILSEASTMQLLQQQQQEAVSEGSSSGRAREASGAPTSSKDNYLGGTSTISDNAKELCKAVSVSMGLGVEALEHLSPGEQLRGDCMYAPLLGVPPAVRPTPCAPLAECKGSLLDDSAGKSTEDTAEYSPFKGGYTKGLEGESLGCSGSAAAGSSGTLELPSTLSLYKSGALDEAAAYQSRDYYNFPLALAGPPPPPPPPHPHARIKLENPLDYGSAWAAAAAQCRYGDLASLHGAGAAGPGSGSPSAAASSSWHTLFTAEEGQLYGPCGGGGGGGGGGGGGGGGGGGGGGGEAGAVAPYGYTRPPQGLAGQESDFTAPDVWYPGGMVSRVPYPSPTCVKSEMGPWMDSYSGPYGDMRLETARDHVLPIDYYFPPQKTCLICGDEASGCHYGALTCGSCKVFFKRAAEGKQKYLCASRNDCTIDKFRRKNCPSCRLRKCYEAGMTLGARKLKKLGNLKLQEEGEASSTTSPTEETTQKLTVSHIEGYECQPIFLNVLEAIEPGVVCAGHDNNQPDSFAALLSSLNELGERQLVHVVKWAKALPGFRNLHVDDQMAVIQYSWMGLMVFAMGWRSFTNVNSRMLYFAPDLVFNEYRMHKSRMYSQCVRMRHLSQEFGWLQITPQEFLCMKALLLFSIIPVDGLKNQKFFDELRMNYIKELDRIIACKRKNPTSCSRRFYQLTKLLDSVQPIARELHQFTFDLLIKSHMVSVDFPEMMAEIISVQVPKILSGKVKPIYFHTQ

[2] = molecular target: Histamine H1 receptor (Homo sapiens, UniProt P35367)
Histamine H1 receptor, sequence (P35367 whole entry): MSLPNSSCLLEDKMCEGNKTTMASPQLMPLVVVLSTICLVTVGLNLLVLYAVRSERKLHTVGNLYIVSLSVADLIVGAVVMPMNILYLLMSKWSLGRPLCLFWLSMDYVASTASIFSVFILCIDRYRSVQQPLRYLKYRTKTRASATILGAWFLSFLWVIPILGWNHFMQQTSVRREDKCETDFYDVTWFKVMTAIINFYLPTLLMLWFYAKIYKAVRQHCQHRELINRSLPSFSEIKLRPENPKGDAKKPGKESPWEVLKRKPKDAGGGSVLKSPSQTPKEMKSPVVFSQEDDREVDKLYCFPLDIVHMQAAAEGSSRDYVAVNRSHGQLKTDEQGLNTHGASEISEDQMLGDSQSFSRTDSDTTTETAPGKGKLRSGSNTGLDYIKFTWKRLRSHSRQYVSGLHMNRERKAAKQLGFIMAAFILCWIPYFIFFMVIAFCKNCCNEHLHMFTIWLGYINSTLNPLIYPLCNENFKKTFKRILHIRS

[3] = molecular target: T2, Androgen receptor (Rattus norvegicus, UniProt P15207); format: functional
T2 sequence (P15207 whole entry): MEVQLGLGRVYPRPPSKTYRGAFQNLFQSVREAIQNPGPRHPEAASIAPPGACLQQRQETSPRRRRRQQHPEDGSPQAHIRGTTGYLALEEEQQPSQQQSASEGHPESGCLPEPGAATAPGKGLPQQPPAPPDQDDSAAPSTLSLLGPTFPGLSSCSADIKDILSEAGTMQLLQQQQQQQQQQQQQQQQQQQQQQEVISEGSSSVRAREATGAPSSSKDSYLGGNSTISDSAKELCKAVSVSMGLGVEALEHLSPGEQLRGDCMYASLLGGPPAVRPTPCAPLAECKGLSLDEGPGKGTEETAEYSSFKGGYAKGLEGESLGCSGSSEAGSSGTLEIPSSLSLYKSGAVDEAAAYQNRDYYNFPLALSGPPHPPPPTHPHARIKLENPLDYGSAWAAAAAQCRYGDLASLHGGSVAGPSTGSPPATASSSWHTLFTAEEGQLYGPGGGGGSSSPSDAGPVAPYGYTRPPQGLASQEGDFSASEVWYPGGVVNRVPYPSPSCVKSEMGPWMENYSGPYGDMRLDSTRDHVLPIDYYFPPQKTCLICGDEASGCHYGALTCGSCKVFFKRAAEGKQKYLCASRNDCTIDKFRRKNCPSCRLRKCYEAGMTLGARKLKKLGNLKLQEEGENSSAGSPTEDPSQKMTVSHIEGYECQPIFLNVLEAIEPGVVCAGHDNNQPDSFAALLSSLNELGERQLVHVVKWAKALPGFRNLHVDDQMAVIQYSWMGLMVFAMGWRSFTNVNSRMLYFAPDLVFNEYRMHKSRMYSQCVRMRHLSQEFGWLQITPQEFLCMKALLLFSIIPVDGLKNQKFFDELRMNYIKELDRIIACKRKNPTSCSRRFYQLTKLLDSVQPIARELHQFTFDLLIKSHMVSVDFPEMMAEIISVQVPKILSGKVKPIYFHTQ

[4] = molecular target: T3, Muscarinic acetylcholine receptor M2 (Homo sapiens, UniProt P08172)
T3 sequence (P08172 whole entry): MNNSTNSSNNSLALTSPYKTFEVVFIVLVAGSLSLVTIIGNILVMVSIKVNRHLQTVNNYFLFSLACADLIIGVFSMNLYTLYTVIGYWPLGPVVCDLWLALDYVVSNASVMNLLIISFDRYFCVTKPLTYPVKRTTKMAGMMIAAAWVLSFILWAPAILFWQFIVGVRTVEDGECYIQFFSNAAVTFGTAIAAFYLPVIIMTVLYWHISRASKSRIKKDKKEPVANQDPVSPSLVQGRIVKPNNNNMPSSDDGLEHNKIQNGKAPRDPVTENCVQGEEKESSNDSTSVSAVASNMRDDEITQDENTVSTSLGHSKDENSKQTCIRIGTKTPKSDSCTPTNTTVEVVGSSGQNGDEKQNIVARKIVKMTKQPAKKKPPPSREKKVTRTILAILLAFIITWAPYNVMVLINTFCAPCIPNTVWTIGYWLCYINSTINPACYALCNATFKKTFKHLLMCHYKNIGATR

[5] = molecular target: T4, Endothelin receptor type B (Homo sapiens, UniProt P24530)
T4 sequence (P24530 whole entry): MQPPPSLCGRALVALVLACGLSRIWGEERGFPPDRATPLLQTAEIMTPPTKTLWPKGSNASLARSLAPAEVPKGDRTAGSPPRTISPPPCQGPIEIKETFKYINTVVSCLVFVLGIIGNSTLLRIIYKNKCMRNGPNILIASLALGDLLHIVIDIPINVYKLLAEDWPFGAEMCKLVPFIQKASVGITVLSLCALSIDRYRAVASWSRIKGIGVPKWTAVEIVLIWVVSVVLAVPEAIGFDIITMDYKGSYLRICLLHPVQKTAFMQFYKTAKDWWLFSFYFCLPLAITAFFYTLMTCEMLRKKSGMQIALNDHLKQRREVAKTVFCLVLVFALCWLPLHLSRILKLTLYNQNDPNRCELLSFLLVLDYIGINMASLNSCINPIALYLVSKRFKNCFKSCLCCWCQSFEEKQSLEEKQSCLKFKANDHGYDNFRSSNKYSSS

[6] = molecular target: Voltage-dependent N-type calcium channel subunit alpha-1B (Rattus norvegicus, UniProt Q02294); format: functional
Voltage-dependent N-type calcium channel subunit alpha-1B, sequence (Q02294 whole entry): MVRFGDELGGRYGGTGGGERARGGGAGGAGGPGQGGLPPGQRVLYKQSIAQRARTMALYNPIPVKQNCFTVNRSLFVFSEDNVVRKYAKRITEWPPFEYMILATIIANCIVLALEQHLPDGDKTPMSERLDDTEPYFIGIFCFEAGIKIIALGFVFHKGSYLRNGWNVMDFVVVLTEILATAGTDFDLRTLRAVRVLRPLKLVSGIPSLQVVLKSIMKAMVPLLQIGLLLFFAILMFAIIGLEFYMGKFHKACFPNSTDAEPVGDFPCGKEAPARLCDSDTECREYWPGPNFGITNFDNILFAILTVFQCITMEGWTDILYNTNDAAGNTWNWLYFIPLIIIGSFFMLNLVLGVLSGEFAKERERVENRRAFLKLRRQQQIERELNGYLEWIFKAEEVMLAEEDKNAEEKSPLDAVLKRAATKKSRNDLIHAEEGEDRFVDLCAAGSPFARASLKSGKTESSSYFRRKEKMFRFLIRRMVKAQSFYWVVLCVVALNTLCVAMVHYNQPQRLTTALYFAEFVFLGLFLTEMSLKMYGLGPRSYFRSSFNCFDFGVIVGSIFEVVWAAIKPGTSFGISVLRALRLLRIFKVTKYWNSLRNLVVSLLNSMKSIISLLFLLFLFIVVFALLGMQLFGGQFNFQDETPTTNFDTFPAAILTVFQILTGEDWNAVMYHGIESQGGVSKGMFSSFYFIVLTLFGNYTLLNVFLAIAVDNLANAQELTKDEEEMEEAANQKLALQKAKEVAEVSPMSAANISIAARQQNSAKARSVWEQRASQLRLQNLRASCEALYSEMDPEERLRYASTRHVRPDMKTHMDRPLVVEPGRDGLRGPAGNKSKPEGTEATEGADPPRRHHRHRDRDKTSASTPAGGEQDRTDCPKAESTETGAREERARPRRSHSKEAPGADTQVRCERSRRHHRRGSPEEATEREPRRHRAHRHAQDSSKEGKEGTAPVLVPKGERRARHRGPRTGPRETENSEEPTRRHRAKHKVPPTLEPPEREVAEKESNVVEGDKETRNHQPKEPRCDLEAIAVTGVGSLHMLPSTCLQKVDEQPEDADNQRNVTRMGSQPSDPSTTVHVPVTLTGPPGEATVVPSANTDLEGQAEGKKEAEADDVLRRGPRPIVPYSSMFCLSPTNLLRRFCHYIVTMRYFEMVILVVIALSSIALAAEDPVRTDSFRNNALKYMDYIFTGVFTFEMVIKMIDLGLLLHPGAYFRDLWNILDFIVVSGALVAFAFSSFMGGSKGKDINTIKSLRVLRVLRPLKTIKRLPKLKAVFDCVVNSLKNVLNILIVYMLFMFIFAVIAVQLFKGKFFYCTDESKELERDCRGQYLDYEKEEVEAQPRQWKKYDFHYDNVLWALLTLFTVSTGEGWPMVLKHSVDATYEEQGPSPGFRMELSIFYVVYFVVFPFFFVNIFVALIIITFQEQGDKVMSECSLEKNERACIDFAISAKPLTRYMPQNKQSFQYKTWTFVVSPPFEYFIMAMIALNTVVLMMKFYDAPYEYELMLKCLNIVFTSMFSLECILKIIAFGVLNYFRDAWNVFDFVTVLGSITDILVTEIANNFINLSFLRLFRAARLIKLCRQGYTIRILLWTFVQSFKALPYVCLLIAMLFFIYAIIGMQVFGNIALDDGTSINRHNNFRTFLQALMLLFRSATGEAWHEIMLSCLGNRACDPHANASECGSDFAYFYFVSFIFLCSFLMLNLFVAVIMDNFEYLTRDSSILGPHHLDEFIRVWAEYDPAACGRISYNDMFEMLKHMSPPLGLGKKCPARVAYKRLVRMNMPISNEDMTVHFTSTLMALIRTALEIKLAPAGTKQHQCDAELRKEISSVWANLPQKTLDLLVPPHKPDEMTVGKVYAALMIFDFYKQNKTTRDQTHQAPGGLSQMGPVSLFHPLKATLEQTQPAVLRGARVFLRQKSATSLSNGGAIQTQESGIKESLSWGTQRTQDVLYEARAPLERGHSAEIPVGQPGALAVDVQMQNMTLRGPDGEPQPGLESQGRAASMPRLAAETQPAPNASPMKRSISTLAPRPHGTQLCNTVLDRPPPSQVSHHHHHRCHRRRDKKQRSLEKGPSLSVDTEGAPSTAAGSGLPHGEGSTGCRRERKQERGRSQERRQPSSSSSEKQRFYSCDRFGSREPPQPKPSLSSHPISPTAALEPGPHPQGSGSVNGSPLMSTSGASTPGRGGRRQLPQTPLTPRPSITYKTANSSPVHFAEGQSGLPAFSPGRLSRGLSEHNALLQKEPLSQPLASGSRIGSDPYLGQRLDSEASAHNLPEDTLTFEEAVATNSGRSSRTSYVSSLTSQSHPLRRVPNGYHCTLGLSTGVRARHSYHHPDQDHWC
Note: assay procedure not described here.

Row | Structure (SMILES) | AC50 [1] [µM] | AC50 [2] [µM] | other results
1 | COc1nccnc1NS(=O)(=O)c1ccc(N)cc1 | > 30 | – | –
2 | NC(=O)c1nc(F)c[nH]c1=O | > 30 | – | –
3 | CC(=N)N1CC[C@H](SC2=C(C(=O)O)N3C(=O)[C@H]([C@@H](C)O)[C@H]3C2)C1 | – | > 300 | AC50 [3]: > 300 µM
4 | CN(C)CCCN1C(=O)c2cc([N+](=O)[O-])ccc2Oc2ccccc21 | > 30 | – | –
5 | O=C1CN2Cc3c(ccc(Cl)c3Cl)N=C2N1 [ANAGRELIDE] | – | > 10 | –
6 | CNCC[C@@H](Oc1ccccc1C)c1ccccc1 [ATOMOXETINE] | – | – | AC50 [3]: > 30 µM
7 | O=C(O)COc1nn(Cc2ccccc2)c2ccccc12 [BENDAZAC] | > 30 | – | –
8 | CCc1oc2ccccc2c1C(=O)c1cc(Br)c(O)c(Br)c1 [BENZBROMARONE] | – | – | AC50 [3]: > 30 µM; AC50 [4]: 0.0373 µM
9 | Cc1ccc([C@@H]2O[C@H](CO)[C@@H](O)[C@H](O)[C@H]2O)cc1Cc1ccc(-c2ccc(F)cc2)s1 [CANAGLIFLOZIN ANHYDROUS] | > 30 | – | –
10 | C=C(C)[C@@H]1CCC(C)=C[C@H]1c1c(O)cc(CCCCC)cc1O [CANNABIDIOL] | – | > 30 | AC50 [3]: > 30 µM
11 | CO/N=C(\C(=O)N[C@@H]1C(=O)N2C(C(=O)O)=C(COC(N)=O)CS[C@H]12)c1ccco1 [CEFUROXIME] | – | > 30 | –
12 | [H]/N=C(\N/C(=N/[H])NCCCCCCNC(=N)NC(=N)Nc1ccc(Cl)cc1)Nc1ccc(Cl)cc1 [CHLORHEXIDINE] | – | > 10 | –
13 | Clc1cccc(Cl)c1N=C1NCCN1 [CLONIDINE] | – | – | AC50 [5]: > 30 µM; AC50 [6]: > 10 µM; AC50 [4]: > 10 µM
14 | CN(CC(=O)O)C(=N)N [CREATINE] | > 30 | – | –
15 | N[C@@H](CSSC[C@H](N)C(=O)O)C(=O)O [CYSTINE] | > 30 | – | –
16 | CNCC[C@H](Oc1cccc2ccccc12)c1cccs1 [DULOXETINE] | – | 8.8 | –
17 | C#Cc1cccc(Nc2ncnc3cc(OCCOC)c(OCCOC)cc23)c1 [ERLOTINIB] | – | > 30 | –
18 | CCC(=O)O[C@@H](O[P@](=O)(CCCCc1ccccc1)CC(=O)N1C[C@H](C2CCCCC2)C[C@H]1C(=O)O)C(C)C [FOSINOPRIL] | – | > 30 | –
19 | C[C@H]1Oc2cc(cnc2N)-c2c(nn(C)c2C#N)CN(C)C(=O)c2ccc(F)cc21 [LORLATINIB] | – | > 30 | AC50 [3]: > 30 µM
20 | CC(C)(N)C(=O)N[C@H](Cc1c[nH]c2ccccc12)C(=O)N[C@H](Cc1c[nH]c2ccccc12)NC=O [MACIMORELIN] | > 30 | – | –
21 | C=C1c2c(Cl)ccc(O)c2C(=O)C2=C(O)[C@]3(O)C(=O)C(C(N)=O)=C(O)[C@@H](N(C)C)[C@@H]3[C@@H](O)[C@H]12 [MECLOCYCLINE] | > 30 | – | –
